Molecules are shown by their SMILES. pIC50: −log10 of the molar value.

In the Kinase Knowledgebase extract (Sharma et al. 2016) one finds IC50 data, which are given here for 33 molecules.

One assay concerns the target PIK3CA (human) (UniProt P42336). Put plainly: Inhibition of PIK3CA Kinase Activity.
The target of assay [1] is PIK3CA (human), P42336 [Antiproliferation of PI3K Mutated BT20 Cells]. Kind of assay: Cell-Based Assay.
Chain of PIK3CA (human), P42336 [Antiproliferation of PI3K Mutated BT20 Cells] (P42336 whole entry, looked up, change not shown): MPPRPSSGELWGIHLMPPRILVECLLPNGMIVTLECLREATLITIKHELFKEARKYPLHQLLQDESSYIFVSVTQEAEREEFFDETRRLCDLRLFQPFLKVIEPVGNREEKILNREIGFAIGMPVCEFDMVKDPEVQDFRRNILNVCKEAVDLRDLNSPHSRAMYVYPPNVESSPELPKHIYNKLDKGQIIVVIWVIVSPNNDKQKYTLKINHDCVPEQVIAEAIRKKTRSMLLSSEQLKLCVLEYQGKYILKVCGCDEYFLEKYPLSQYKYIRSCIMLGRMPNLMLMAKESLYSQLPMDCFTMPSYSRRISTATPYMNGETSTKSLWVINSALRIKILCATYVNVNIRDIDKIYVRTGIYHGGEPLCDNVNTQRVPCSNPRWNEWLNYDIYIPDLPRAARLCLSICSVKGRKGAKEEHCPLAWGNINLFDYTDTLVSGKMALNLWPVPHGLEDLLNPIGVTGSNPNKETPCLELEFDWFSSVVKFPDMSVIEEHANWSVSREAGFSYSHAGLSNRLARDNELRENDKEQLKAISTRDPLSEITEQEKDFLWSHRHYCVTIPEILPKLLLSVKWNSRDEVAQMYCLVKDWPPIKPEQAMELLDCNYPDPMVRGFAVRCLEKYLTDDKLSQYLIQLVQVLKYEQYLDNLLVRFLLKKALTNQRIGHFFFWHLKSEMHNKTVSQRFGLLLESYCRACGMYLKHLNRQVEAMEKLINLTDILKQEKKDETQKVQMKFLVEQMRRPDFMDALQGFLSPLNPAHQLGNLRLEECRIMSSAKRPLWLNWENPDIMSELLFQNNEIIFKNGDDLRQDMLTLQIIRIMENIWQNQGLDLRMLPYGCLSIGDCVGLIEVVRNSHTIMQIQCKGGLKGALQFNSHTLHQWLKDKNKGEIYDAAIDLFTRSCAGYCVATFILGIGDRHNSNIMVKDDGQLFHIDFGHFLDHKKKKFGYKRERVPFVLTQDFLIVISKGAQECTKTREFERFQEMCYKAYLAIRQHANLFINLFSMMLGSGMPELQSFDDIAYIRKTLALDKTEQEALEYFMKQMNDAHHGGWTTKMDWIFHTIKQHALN

Chain of PIK3CA (human) (P42336 whole entry, looked up): as the sequence (P42336 whole entry, looked up, change not shown) above

With `Cc1nc(N)nc2c1cc(-c1cnc(N)cn1)c(=O)n2C1CCCC1`, the figures for the negative logarithm of the IC50 (pIC50) (at PIK3CA (human); in assay [1]) were 7.82 and 7.75, respectively.

Regarding `Cc1nc(N)nc2c1cc(-c1cn[nH]c1)c(=O)n2CC(F)(F)F`, the pIC50 is 6.73 against PIK3CA (human) and 6.63 in assay [1].

As to `COc1ccc(-c2cc3c(C)nc(N)nc3n([C@H]3CC[C@H](OC)CC3)c2=O)cn1`, the pIC50 at PIK3CA (human) was 8.41; in assay [1], 8.13.

In the case of `COc1ccc(-c2cc3c(C)nc(N)nc3n(C3CCOCC3)c2=O)cn1`, the pIC50 in assay [1] was 7.15.

With `CCNc1nc(C)c2cc(-c3cccc(O)c3)c(=O)n(C3CCCC3)c2n1`, the pIC50 was 9.00 against PIK3CA (human) and 8.52 in assay [1].

As for `CCn1nccc1NC(=O)c1cc2c(C)nc(N)nc2n([C@H]2CC[C@H](O)CC2)c1=O`, the pIC50 was 8.89 on PIK3CA (human) and 7.30 in assay [1].

In the case of `Cc1nc(N)nc2c1cc(-c1cnn(C)c1)c(=O)n2[C@H]1CC[C@H](O)CC1`, the pIC50 at PIK3CA (human) was 7.74; in assay [1], 6.32.

As to `CNc1nc(C)c2cc(-c3cccc(CO)c3)c(=O)n(C3CCCC3)c2n1`, the negative logarithm of the IC50 (pIC50) at PIK3CA (human) is 8.32; in assay [1], 7.83.

Turning to `Cc1nc(N)nc2c1cc(-c1cnc3[nH]ccc3c1)c(=O)n2CC1CCCO1` (stereo unspecified), the pIC50 against PIK3CA (human) is 8.27; in assay [1], 7.44.

Regarding `CCNc1nc(C)c2cc(CCC(=O)Nc3ccccn3)c(=O)n(C3CCCC3)c2n1`, the pIC50 in assay [1] is 5.00.

As to `Cc1nc(N)nc2c1cc(-c1cn[nH]c1)c(=O)n2C1CC1`, the negative logarithm of the IC50 (pIC50) on PIK3CA (human) was 7.11.

`Cc1nc(N)nc2c1cc(-c1ccncc1)c(=O)n2Cc1ccc(Cl)cc1`: the negative logarithm of the IC50 (pIC50) against PIK3CA (human) is 5.31.

At PIK3CA (human), `CCn1nccc1NC(=O)c1cc2c(C)nc(N)nc2n(C(C)C)c1=O` had a negative logarithm of the IC50 (pIC50) of 8.41. Against the preceding molecule, the pIC50 is 3.10 log units higher.

`Cc1nc(N)nc2c1cc(-c1cn[nH]c1)c(=O)n2N1CCCC1` showed a pIC50 against PIK3CA (human) of 7.55.

Turning to `CCNc1nc(C)c2cc(CCC(=O)N(C)C)c(=O)n(C3CCCC3)c2n1`, the pIC50 in assay [1] is 5.00.

As to `COc1ncc(-c2cc3c(C)nc(N)nc3n([C@H]3CC[C@@H](OCCO)CC3)c2=O)cc1F`, the negative-log IC50 (pIC50) against PIK3CA (human) is 8.59.

`COc1ncc(-c2cc3c(C)nc(N)nc3n(C3CCOCC3)c2=O)cc1F`: at PIK3CA (human), the negative logarithm of the IC50 (pIC50) is 8.84.

`COc1ccc(-c2cc3c(C)nc(N)nc3n([C@H]3CC[C@@H](OCC(N)=O)CC3)c2=O)cn1` showed a pIC50 in assay [1] of 7.69.

Molecule `COc1ccc(-c2cc3c(C)nc(N)nc3n([C@H]3CC[C@H](O)CC3)c2=O)cn1` had a pIC50 in assay [1] of 8.44.

In assay [1], `CNc1nc(C)c2cc(-c3cc(CN)ccc3F)c(=O)n(C3CCCC3)c2n1` gave a pIC50 of 5.00.

For the molecule `Cc1nc(N)nc2c1cc(-c1cnc3ccccc3c1)c(=O)n2CC(C)(C)O`, in assay [1], the negative-log IC50 (pIC50) was 6.49. This pIC50 is 1.49 log units higher than that of the molecule before.

The molecule `COc1ccc(-c2cc3c(C)nc(N)nc3n(N3CCCC3)c2=O)cn1` gave a negative-log IC50 (pIC50) on PIK3CA (human) of 7.64.

`COc1ccc(Cn2c(=O)c(-c3ccccc3)cc3c(C)nc(N)nc32)cc1`: the negative logarithm of the IC50 (pIC50) on PIK3CA (human) is 6.51.

Take `Cc1nc(N)nc2c1cc(-c1cn[nH]c1)c(=O)n2C1CCCC1`: the pIC50 in assay [1] is 8.46.

Turning to `COc1ncc(-c2cc3c(C)nc(N)nc3n([C@H]3CC[C@@H](OCC(N)=O)CC3)c2=O)cn1`, in assay [1], the pIC50 is 7.08. This pIC50 lies 1.38 log units lower than the previous one.

For `CCn1cc(CNC(=O)c2cc3c(C)nc(NC)nc3n(C3CCCC3)c2=O)cn1`, on PIK3CA (human), the negative logarithm of the IC50 (pIC50) is 5.92.

Consider `Cc1nc(NCC(C)(C)O)nc2c1cc(-c1cccc(O)c1)c(=O)n2C1CCCC1`, for which the negative logarithm of the IC50 (pIC50) in assay [1] is 5.93.

Molecule `COc1ccc(-c2cc3c(C)nc(N)nc3n(C3CC3)c2=O)cn1` showed a negative-log IC50 (pIC50) against PIK3CA (human) of 7.25.

`COc1ccc(-c2cc3c(C)nc(N)nc3n([C@H]3CC[C@H](OCC(N)=O)CC3)c2=O)cn1` had a pIC50 in assay [1] of 7.71.

As to `CCNc1nc(C)c2cc(CCC(=O)N(CC)CC)c(=O)n(C3CCCC3)c2n1`, the pIC50 in assay [1] is 5.00.

Take `COc1ncc(-c2cc3c(C)nc(N)nc3n([C@H]3CC[C@H](OCC(N)=O)CC3)c2=O)cn1`: in assay [1], the negative logarithm of the IC50 (pIC50) was 7.28.

`COc1ccc(-c2cc3c(C)nc(N)nc3n([C@H]3CC[C@@H](O)CC3)c2=O)cn1` gave a negative-log IC50 (pIC50) in assay [1] of 7.72.

On to `Cc1nc(N)nc2c1cc(-c1ccccc1)c(=O)n2Cc1ccc(Cl)cc1`, for which, on PIK3CA (human), the pIC50 is 5.85.

By pIC50 is commonly meant the IC50 on a negative log10 scale, so that one unit is a factor of ten. A high value points to a low IC50.
